Format in all cases: functional
One assay has as its system OVCAR-4. Put plainly: Antiproliferative activity against human OVCAR4 cells assessed as growth inhibition at 10 uM after 48 hrs by sulforhodamine B assay relative to control. The settings on record: OVCAR-4, 48 h, read-out: GI.
The test system of another assay is K562. Put plainly: Antiproliferative activity against human K562 cells assessed as growth inhibition at 10 uM after 48 hrs by sulforhodamine B assay relative to control. The settings on record: K562, 48 h, read-out: GI.
The test system of another assay is CAKI-1. Put plainly: Antiproliferative activity against human Caki1 cells assessed as growth inhibition at 10 uM after 48 hrs by sulforhodamine B assay relative to control. The settings on record: CAKI-1, 48 h, read-out: GI. In general terms: In SRB staining, fixed cells bind dye roughly in proportion to their protein.
The test system of another assay is SR. The assay can be described thus: Antiproliferative activity against human SR cells assessed as growth inhibition at 10 uM after 48 hrs by sulforhodamine B assay relative to control. As to conditions: read-out: GI.
The test system of the next assay is HCT-116. The assay can be described thus: Antiproliferative activity against human HCT116 cells assessed as growth inhibition at 10 uM after 48 hrs by sulforhodamine B assay relative to control. The settings on record: HCT-116, 48 h, read-out: GI.
In the next assay the test system is T47D. The assay can be described thus: Antiproliferative activity against human T47D cells assessed as growth inhibition at 10 uM after 48 hrs by sulforhodamine B assay relative to control. As to conditions: read-out: GI.
In a further assay the test system is HL-60(TB). Put plainly: Antiproliferative activity against human HL-60(TB) cells assessed as growth inhibition at 10 uM after 48 hrs by sulforhodamine B assay relative to control. The settings on record: HL-60, 48 h, read-out: GI.
Another assay concerns MOLT-4. The assay can be described thus: Antiproliferative activity against human MOLT4 cells assessed as growth inhibition at 10 uM after 48 hrs by sulforhodamine B assay relative to control. The settings on record: MOLT-4, 48 h, read-out: GI.
The subject of the next assay is SK-MEL-5. Put plainly: Antiproliferative activity against human SK-MEL-5 cells assessed as growth inhibition at 10 uM after 48 hrs by sulforhodamine B assay relative to control. The settings on record: SK-MEL-5, 48 h, read-out: GI.
The test system of the next assay is NCI-H522. Put plainly: Antiproliferative activity against human NCI-H522 cells assessed as growth inhibition at 10 uM after 48 hrs by sulforhodamine B assay relative to control. The settings on record: NCI-H522, 48 h, read-out: GI.
In another assay the test system is NCI/ADR-RES. The assay can be described thus: Antiproliferative activity against human NCI/ADR-RES cells assessed as growth inhibition at 10 uM after 48 hrs by sulforhodamine B assay relative to control. The settings on record: read-out: GI.
The subject of another assay is UO-31. Put plainly: Antiproliferative activity against human UO31 cells assessed as growth inhibition at 10 uM after 48 hrs by sulforhodamine B assay relative to control. The settings on record: UO-31, 48 h, read-out: GI.
A further assay relates to SF-295. Put plainly: Antiproliferative activity against human SF295 cells assessed as growth inhibition at 10 uM after 48 hrs by sulforhodamine B assay relative to control. As to conditions: SF-295, 48 h, read-out: GI.
In another assay the test system is NCI-H460. The assay can be described thus: Antiproliferative activity against human NCI-H460 cells assessed as growth inhibition at 10 uM after 48 hrs by sulforhodamine B assay relative to control. As to conditions: NCI-H460, 48 h, read-out: GI.
The next assay relates to NCI-H322M. Put plainly: Antiproliferative activity against human NCI-H322M cells assessed as growth inhibition at 10 uM after 48 hrs by sulforhodamine B assay relative to control. As to conditions: read-out: GI.
The test system of another assay is MCF7. Put plainly: Antiproliferative activity against human MCF7 cells assessed as growth inhibition at 10 uM after 48 hrs by sulforhodamine B assay relative to control. As to conditions: MCF7, 48 h, read-out: GI.
The next assay deals with UACC-62. Put plainly: Antiproliferative activity against human UACC62 cells assessed as growth inhibition at 10 uM after 48 hrs by sulforhodamine B assay relative to control. The settings on record: UACC-62, 48 h, read-out: GI.
In a further assay the test system is MDA-MB-468. The assay can be described thus: Antiproliferative activity against human MDA-MB-468 cells assessed as growth inhibition at 10 uM after 48 hrs by sulforhodamine B assay relative to control. The settings on record: MDA-MB-468, 48 h, read-out: GI.
The subject of another assay is HCT-15. The assay can be described thus: Antiproliferative activity against human HCT15 cells assessed as growth inhibition at 10 uM after 48 hrs by sulforhodamine B assay relative to control. As to conditions: HCT-15, 48 h, read-out: GI.
The next assay deals with LOX IMVI. Put plainly: Antiproliferative activity against human LOXIMVI cells assessed as growth inhibition at 10 uM after 48 hrs by sulforhodamine B assay relative to control. The settings on record: read-out: GI.
Another assay has as its system ACHN. The assay can be described thus: Antiproliferative activity against human ACHN cells assessed as growth inhibition at 10 uM after 48 hrs by sulforhodamine B assay relative to control. The settings on record: read-out: GI.
In a further assay the test system is A549. Put plainly: Antiproliferative activity against human A549/ATCC cells assessed as growth inhibition at 10 uM after 48 hrs by sulforhodamine B assay relative to control. As to conditions: A549, 48 h, read-out: GI.
A further assay concerns PC-3. The assay can be described thus: Antiproliferative activity against human PC3 cells assessed as growth inhibition at 10 uM after 48 hrs by sulforhodamine B assay relative to control. The settings on record: PC-3, 48 h, read-out: GI.

Turning to `CCOC(=O)C1=C(CSC2=NCCS2)N(C)C(=O)NC1c1ccccc1` (configuration not stated), the inhibition of growth at 10 µM with OVCAR-4 was determined as 16%; with K562, 24%; with CAKI-1, 24%; with SR, 40%; in the assay on HCT-116 it was 10%; with T47D, 37%. Also, the inhibition of growth at 10 µM turned out to be 10% in the assay on HL-60(TB); 19% with MOLT-4; 4% in the assay with SK-MEL-5; 19% in the assay on NCI-H522; 15% in the assay on NCI/ADR-RES; 21% in the assay with UO-31. For the same compound, the inhibition of growth at 10 µM in the assay on SF-295 stood at 10%; with NCI-H460, 2%; with NCI-H322M, 27%; with MCF7 it was 19%; with UACC-62 it was 27%; in the assay on MDA-MB-468, 11%. For the same compound, the inhibition of growth at 10 µM in the assay on HCT-15 was found to be 28%; in the assay with LOX IMVI, 16%; with ACHN it was 17%; in the assay on A549, 16%.

Take `CCOC(=O)C1=C(CSc2nnnn2-c2ccccc2)N(C)C(=O)NC1c1ccccc1` (configuration not stated): the inhibition of growth at 10 µM with OVCAR-4 was 4%; in the assay on K562, 17%; with CAKI-1 it was 14%; in the assay with SR, 13%; in the assay on HCT-116, 12%; in the assay with T47D, 17%. Also, the inhibition of growth at 10 µM in the assay on HL-60(TB) stood at 7%; in the assay on MOLT-4, 26%; in the assay with SK-MEL-5, 2%; in the assay with NCI-H522 it was 14%; with NCI/ADR-RES it was 14%; in the assay on UO-31, 21%. Moreover, the inhibition of growth at 10 µM in the assay on SF-295 was found to be 11%; in the assay on NCI-H322M it was 18%; in the assay with MCF7, 15%; with UACC-62, 17%; with MDA-MB-468 it was 3%; in the assay with HCT-15, 8%. The inhibition of growth at 10 µM was determined as 14% in the assay on LOX IMVI and 3% with ACHN.

For `CCOC(=O)C1=C(CSC(=S)N2CCOCC2)N(C)C(=O)NC1c1ccccc1` (configuration not stated), the inhibition of growth at 10 µM turned out to be 83% with K562; 12% in the assay with SR; 6% in the assay with HCT-116; 18% with T47D; 4% in the assay with HL-60(TB); 5% in the assay on MOLT-4. The inhibition of growth at 10 µM in the assay with SK-MEL-5 stood at 1%; in the assay on NCI-H522, 7%; in the assay with NCI/ADR-RES, 6%; in the assay on UO-31, 9%; in the assay with SF-295 it was 9%; in the assay with NCI-H322M, 18%. For the same compound, the inhibition of growth at 10 µM in the assay with MCF7 worked out at 14%; in the assay with UACC-62 it was 16%; with MDA-MB-468, 6%; with HCT-15, 7%; in the assay with LOX IMVI, 12%; in the assay on ACHN, 7%. In addition, the inhibition of growth at 10 µM with A549 was 4%.

On to `CCOC(=O)C1=C(CSc2nc3ccccc3[nH]2)N(C)C(=O)NC1c1ccccc1` (configuration not stated), for which the inhibition of growth at 10 µM with K562 turned out to be 10%; in the assay with CAKI-1, 2%; in the assay with SR, 1%; in the assay on HCT-116, 6%; in the assay on HL-60(TB), 6%; in the assay on MOLT-4, 14%. Also, the inhibition of growth at 10 µM stood at 3% with NCI-H522; 6% in the assay with NCI/ADR-RES; 4% in the assay on UO-31; 7% with SF-295; 12% in the assay on NCI-H322M; 14% in the assay with MCF7. Besides, the inhibition of growth at 10 µM in the assay on UACC-62 was 11%; in the assay on MDA-MB-468, 1%; in the assay with HCT-15 it was 7%; in the assay with LOX IMVI, 11%; with PC-3, 8%; with ACHN, 2%.

Consider `CCOC(=O)C1=C(Cn2cc(CO)nn2)N(C)C(=O)NC1c1ccccc1` (configuration not stated), for which the inhibition of growth at 10 µM with OVCAR-4 stood at 3%; in the assay on K562, 10%; with CAKI-1, 8%; in the assay with SR, 2%; in the assay on HCT-116, 5%; in the assay with T47D, 1%. The inhibition of growth at 10 µM is 2% with HL-60(TB); 11% in the assay on MOLT-4; 5% in the assay on NCI-H522; 4% with NCI/ADR-RES; 7% in the assay on UO-31; 4% in the assay on SF-295. For the same compound, the inhibition of growth at 10 µM in the assay on NCI-H322M stood at 9%; with MCF7, 12%; with HCT-15 it was 6%; in the assay with LOX IMVI, 7%; in the assay with ACHN, 2%.

`CCOC(=O)C1=C(CN2CCCC2)N(C)C(=O)NC1c1ccccc1` (configuration not stated): the inhibition of growth at 10 µM with K562 worked out at 1%; in the assay with CAKI-1, 9%; in the assay on SR, 10%; in the assay with HCT-116, 2%; with T47D it was 1%; with MOLT-4, 4%. Further, the inhibition of growth at 10 µM in the assay with NCI-H522 is 4%; in the assay on NCI/ADR-RES, 3%; in the assay on UO-31 it was 8%; in the assay on SF-295, 9%; in the assay on NCI-H322M, 9%; with MCF7, 13%. The inhibition of growth at 10 µM in the assay on HCT-15 is 6%; with LOX IMVI, 8%.

With `CCOC(=O)C1=C(CSc2nnc(-c3ccccc3)o2)N(C)C(=O)NC1c1ccccc1` (configuration not stated), the inhibition of growth at 10 µM in the assay with OVCAR-4 was determined as 14%; with K562 it was 34%; with CAKI-1 it was 14%; in the assay with SR it was 16%; in the assay on HCT-116 it was 19%; in the assay on T47D, 25%. The inhibition of growth at 10 µM came out at 11% in the assay on HL-60(TB); 29% with MOLT-4; 10% with SK-MEL-5; 16% in the assay on NCI-H522; 15% in the assay with NCI/ADR-RES; 34% in the assay with UO-31. Besides, the inhibition of growth at 10 µM amounted to 14% with SF-295; 15% with NCI-H322M; 11% with MCF7; 10% with UACC-62; 17% with MDA-MB-468; 15% in the assay on HCT-15. Besides, the inhibition of growth at 10 µM with LOX IMVI was 27%; in the assay with PC-3 it was 20%; in the assay on ACHN, 3%; in the assay with A549, 5%.
